Test results from patent US7462598B2, “Antimicrobial theta defensins, analogs thereof, and methods of use” (priority 2002, dated 2008).
Marks after values point to notes of the source that are not given here. Bridge positions count the residues as written; N and C are the ends. Peptide text beside a SMILES is read from it.

Columns and labels:
S. aureus 502a [1] = experiment: Cell-suspension microbicidal assay (MMC); assay type: cell-based, Staphylococcus aureus; conditions: for MMC, S. aureus: lowest concentration that reduced cell viability by 99.9%, 10 mM PIPES, 5 mM glucose, pH 7.4, 2 h 37° C.
In short: (§1)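 Log-phase microbes (2×10^6 CFU/ml) exposed to two-fold peptide dilutions (0.062-8.0 μg/ml) in 10 mM PIPES, 5 mM glucose, pH 7.4, 2 h at 37 °C, then diluted 1:10 to 1:10^6 in broth and grown 24-48 h. MMC is the lowest concentration giving ≥99.9% killing (no pellet at 1:10^3).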

[2] = tested on: S. aureus 502a, E. coli ML35, and C. albicans 16820; experiment: Cell-suspension microbicidal assay, statements across the test organisms (lowest MMC, overall ranges); assay type: cell-based; conditions: for 99.9% kill against one of the bacterial organisms: at 8 μg/ml, the highest concentration tested; for M: peptide concentration that kill 99.9% of either S. aureus, E. coli, or C. albicans, lowest MMC value; for fold higher MMC than the native cyclic peptide: de-cyclized analog versus native θ-defensin, three test organisms
In short: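 Log-phase organisms (2×10^6 CFU/ml) were exposed for 2 h at 37° C. to peptide (0.062–8.0 μg/ml final) in 10 mM PIPES/5 mM glucose, pH 7.4, then serially diluted in broth and grown 24–48 h. MMC was defined as ≥99.9% killing (no pellet at 1:10^3). SI was calculated as concentration giving 3% hemolysis in PBS divided by lowest MMC.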

E. coli ML35 [3] = experiment: Cell-suspension microbicidal assay (MMC); assay type: cell-based, Escherichia coli; conditions: for MMC, E. coli: lowest concentration that reduced cell viability by 99.9%, 10 mM PIPES, 5 mM glucose, pH 7.4, 2 h 37° C.
In short: as §1

S. aureus 502a [4] = assay type: cell-based, Staphylococcus aureus; conditions: for enhancement of staphylocidal activity by serum: 10% normal human serum, FIG. 7
Method: Dose-dependent staphylocidal activity of each peptide was determined in assays containing 10% normal human serum. Percentages of killing are relative to activities of peptide-containing incubations in which serum was omitted.
(§2) To determine the effects of serum, salt, calcium chloride and magnesium chloride on microbicidal activities, peptide activities were determined in assays containing varying ionic strength, divalent cations, and serum. The effect of serum on staphylocidal activity of each peptide was determined by incubating 1×10^6 CFU/ml of S. aureus 502a with increasing peptide concentrations (0.5-4 μg/ml) in 10 mM PIPES, pH 7.4, containing 10% normal human serum for 2 h at 37° C. The effect of sodium chloride on staphylocidal activities was assessed with 5 μg/ml of each peptide in 10 mM PIPES, pH 7.4, containing varying concentrations of sodium chloride (0-160 mM). Effects of divalent cations, CaCl2, or MgCl2 (0-5.6 mM) were assessed in microbicidal assays against E. coli ML35. Bactericidal activities were determined by colony counting (see Example II), and microbicidal potencies were expressed as percent killing as follows:
(§3) [formula] where A=surviving bacteria (CFU/ml) after initial incubation with each peptide in buffer containing serum, salt, or divalent cations and Ao=bacterial CFU/ml in the “no-peptide” controls.

C. albicans 16820 = experiment: Cell-suspension microbicidal assay (MMC); assay type: cell-based, Candida albicans; conditions: for MMC, C. albicans: lowest concentration that reduced cell viability by 99.9%, 10 mM PIPES, 5 mM glucose, pH 7.4, 2 h 37° C.
In short: as §1

E. coli ML35 [5] = experiment: Membrane permeabilization assay (ONPG hydrolysis); assay type: cell-based, Escherichia coli; conditions: rates at 1 μg/ml concentration of each peptide
In short: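 ONPG hydrolysis by log-phase E. coli ML35 (1×10^6 CFU/ml) in 10 mM PIPES pH 7.4 with 3 mM ONPG, peptides at 0-8.0 μg/ml final; A405 followed for 60 min. Control: 0-4 μg/ml peptide incubated with recombinant β-galactosidase and 3 mM ONPG.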

human erythrocytes = experiment: Hemolysis assay; assay type: cell-based
Method: For the hemolysis assay, the hemolytic activity of each peptide was determined by the method of Tam et al. (Tam et al., Eur. J. Biochem. 267:3289-3300 (2000)). Blood was obtained from a healthy donor in accordance to a protocol approved by the Institutional Review Board. Normal human serum was prepared from the same individual and stored at −20° C. Red blood cells (RBC) were prepared from blood collected in EDTA. RBC were harvested at 234×g for 10 min, 22° C., washed four times with 10 mM sodium phosphate, 150 mM NaCl, pH 7.4 (PBS), containing 4 mM EDTA and resuspended in PBS without EDTA. Peptides dissolved in 10 μl 0.01% HOAc were diluted with PBS to final concentrations of 0.3-100 μg/ml. RBC were added to a 2% final density in 100 μl. Incubation mixtures were also prepared with 10% serum. After 1 h incubation at 37° C., the cell suspensions were centrifuged at 234×g for 10 min, 22° C. Fifty-μl samples of the supernatants were removed, and the absorbance at 405 nm (A) was measured. Hemolytic activity of each peptide was calculated relative to lysis by 1% NP-40 using the following formula:
A selectivity index (SI=H/M) was calculated as a ratio of a peptide concentration (μg/ml) that causes 3% hemolysis (H) obtained from a dose-dependent hemolysis plot over 0.3 to 3 μg/ml of each peptide in PBS and the lowest MMC value (M) for any of the three test microorganisms (see Example II; Table 2).

S. aureus 502a [6] = assay type: cell-based, Staphylococcus aureus; conditions: physiologic salt / various concentrations of salt; FIG. 6
Method: The activity of each peptide (5 μg/ml) was determined in assays containing increasing concentrations of sodium chloride. Staphylocidal activities were expressed as percentages of killing obtained in the absence of additional NaCl.
as §2, §3

Row | SMILES | Killing percentage, S. aureus (MMC not reached) (S. aureus 502a [1]; at 8 μg/ml, the highest concentration tested) | fold lower staphylocidal activity than RTD-3 and PG-1 (S. aureus 502a [1]; from MMC, Table 2) | MMC, S. aureus (S. aureus 502a [1]) [µg/mL] | 99.9% kill against one of the bacterial organisms [2] | M [2] [µg/mL] | MMC, E. coli (E. coli ML35 [3]) [µg/mL] | inhibition of bactericidal activity in serum (S. aureus 502a [4]; 502a) | MMC, C. albicans (C. albicans 16820) [µg/mL] | ONPG hydrolysis (E. coli ML35 [5]) | enhancement of staphylocidal activity by serum (S. aureus 502a [4]) [%] | fold higher MMC than the native cyclic peptide [2] | H (human erythrocytes; peptide concentration that causes 3% hemolysis, calculated from dose-dependent hemolysis plot over 0.3-3 μg/ml in PBS) [µg/mL] | effect of salt on microbicidal activity (in words) (S. aureus 502a [6]) | fold lower staphylocidal potency than native PG-1 (S. aureus 502a [1]; from MMC, Table 2) [fold] | fold less microbicidal than PG-1 ([2]; Table 5) | fold lower potency against E. coli than native PG-1 (E. coli ML35 [3]; from MMC, Table 2) | percent less hemolytic than native PG-1 (human erythrocytes) | fold lower candidacidal potency than native PG-1 (C. albicans 16820; from MMC, Table 2)
1 | CC(C)C[C@@H]1NC(=O)[C@@H]2CSSC[C@H](NC(=O)[C@H](CCCNC(=N)N)NC(=O)[C@@H](NC(=O)[C@@H](NC(=O)CNC(=O)[C@@H](N)CCCNC(=N)N)C(C)C)CSSC[C@@H](C(=O)N[C@@H](CCCNC(=N)N)C(N)=O)NC1=O)C(=O)N[C@@H](CC(C)C)C(=O)N[C@H]1CSSC[C@H](NC(=O)[C@H](C(C)C)NC(=O)CNC(=O)[C@H](CCCNC(=N)N)NC(=O)[C@H](CCCNC(=N)N)NC1=O)C(=O)N[C@@H](CCCNC(=N)N)C(=O)N2 [3:1 aRTD-3-NH] (H-RGVCRCLCRRGVCRCLCR-NH2; disulfide 4-17, 6-15, 8-13; N-terminus assumed) | (99%)^b | at least 8 fold | > 8 | did not achieve a 99.9% kill | 0.75 | 1.0 | 20-50% | 0.8 | 9.4 (A405/sec) · 10^−5 |  |  |  |  |  |  |  |  | 
2 | CC(C)C[C@H](NC(=O)[C@H](CCCNC(=N)N)NC(=O)CNC(=O)CN)C(=O)N[C@H]1CSSC[C@@H](C(=O)N[C@H](C(=O)NCC(=O)N[C@@H](CCCNC(=N)N)C(=O)N[C@@H](CCCNC(=N)N)C(N)=O)C(C)C)NC(=O)[C@H](C(C)C)NC(=O)[C@@H]2CSSC[C@H](NC(=O)[C@H](Cc3ccc(O)cc3)NC1=O)C(=O)N[C@@H](CCCNC(=N)N)C(=O)N[C@@H](CCCNC(=N)N)C(=O)N[C@@H](CCCNC(=N)N)C(=O)N[C@@H](Cc1ccccc1)C(=O)N2 [4:4 PG-1-NH] (H-GGRLCYCRRRFCVCVGRR-NH2; disulfide 5-14, 7-12; N-terminus assumed) |  |  | 0.5 |  | 0.5 | 1.0 |  | 1.5 | 12.4 (A405/sec) · 10^−5 | ~40 |  |  |  |  |  |  |  | 
3 | CC[C@H](C)[C@@H]1NC(=O)[C@@H]2CSSC[C@H](NC(=O)[C@H](CCCNC(=N)N)NC(=O)[C@@H](NC(=O)[C@H](Cc3ccccc3)NC(=O)CN)CSSC[C@@H](C(=O)N[C@H](C(=O)N[C@@H](CCCNC(=N)N)C(=O)O)[C@@H](C)O)NC1=O)C(=O)N[C@@H](CC(C)C)C(=O)N[C@H]1CSSC[C@H](NC(=O)[C@H](C(C)C)NC(=O)CNC(=O)[C@H](CCCNC(=N)N)NC(=O)[C@H](CCCNC(=N)N)NC1=O)C(=O)N[C@@H](CCCNC(=N)N)C(=O)N2 [aRTD-1-OH] (H-GFCRCLCRRGVCRCICTR-OH; disulfide 3-16, 5-14, 7-12; N-terminus assumed) |  |  | 4.5 | did not achieve a 99.9% kill | 4 |  |  | 4.0 | 2.4 (A405/sec) · 10^−5 |  | 4 fold | 15.0 | intermediate |  |  |  |  | 
4 | CC(C)C[C@H](NC(=O)[C@H](CCCNC(=N)N)NC(=O)CNC(=O)CNC(=O)[C@@H](N)CCCNC(=N)N)C(=O)N[C@H]1CSSC[C@@H](C(=O)N[C@H](C(=O)NCC(=O)N[C@@H](CCCNC(=N)N)C(=O)O)C(C)C)NC(=O)[C@H](C(C)C)NC(=O)[C@@H]2CSSC[C@H](NC(=O)[C@H](Cc3ccc(O)cc3)NC1=O)C(=O)N[C@@H](CCCNC(=N)N)C(=O)N[C@@H](CCCNC(=N)N)C(=O)N[C@@H](CCCNC(=N)N)C(=O)N[C@@H](Cc1ccccc1)C(=O)N2 [PG-1-OH] (H-RGGRLCYCRRRFCVCVGR-OH; disulfide 6-15, 8-13; N-terminus assumed) |  |  | 2.0 |  | 1.5 | 1.5 |  | 1.5 | 10.7 (A405/sec) · 10^−5 | 25 |  |  |  | 5 | 2-3 fold | 1- to 2 fold | about 50% | 1- to 2 fold
5 | CC(C)C[C@@H]1NC(=O)[C@@H]2CSSC[C@H](NC(=O)[C@H](CCCNC(=N)N)NC(=O)[C@@H](NC(=O)[C@@H](NC(=O)CN)C(C)C)CSSC[C@@H](C(=O)N[C@@H](CCCNC(=N)N)C(=O)N[C@@H](CCCNC(=N)N)C(=O)O)NC1=O)C(=O)N[C@@H](CC(C)C)C(=O)N[C@H]1CSSC[C@H](NC(=O)[C@H](C(C)C)NC(=O)CNC(=O)[C@H](CCCNC(=N)N)NC(=O)[C@H](CCCNC(=N)N)NC1=O)C(=O)N[C@@H](CCCNC(=N)N)C(=O)N2 [aRTD-3-OH] (H-GVCRCLCRRGVCRCLCRR-OH; disulfide 3-16, 5-14, 7-12; N-terminus assumed) |  |  | 1.5 |  | 1.5 |  |  | 1.5 |  |  | 1-2 fold |  | least affected |  |  |  |  | 
